Results on two molecules are retold here after patent US8841276B2, “Fulvene and fulvalene analogs and their use in treating cancers” (Emory University, priority 2007, dated 2014).

In series [1] the target is T1, Nox2 enzyme (Homo sapiens, UniProt P04839).
T1 construct: expressed in transfected cells; host or cells: Cos-phox cells (COS-7 derived, per the cited Price et al. 2002; own knowledge)
T1 sequence (P04839 2-570 limits assumed): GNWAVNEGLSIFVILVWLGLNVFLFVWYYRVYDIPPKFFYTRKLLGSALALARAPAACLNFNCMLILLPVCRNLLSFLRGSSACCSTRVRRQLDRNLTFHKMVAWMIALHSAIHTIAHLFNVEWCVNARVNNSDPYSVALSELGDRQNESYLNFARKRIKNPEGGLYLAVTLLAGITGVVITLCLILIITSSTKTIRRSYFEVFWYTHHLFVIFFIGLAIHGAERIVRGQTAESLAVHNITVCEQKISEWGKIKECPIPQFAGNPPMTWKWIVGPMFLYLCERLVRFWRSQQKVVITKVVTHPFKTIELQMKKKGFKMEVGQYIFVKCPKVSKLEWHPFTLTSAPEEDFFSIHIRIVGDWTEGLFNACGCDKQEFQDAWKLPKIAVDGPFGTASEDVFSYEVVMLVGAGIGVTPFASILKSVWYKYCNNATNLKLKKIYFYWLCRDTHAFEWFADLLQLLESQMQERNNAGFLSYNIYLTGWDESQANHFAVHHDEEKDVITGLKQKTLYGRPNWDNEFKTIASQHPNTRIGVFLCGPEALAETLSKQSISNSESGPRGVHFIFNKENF
T1 sequence (P13498 2-195 partner limits assumed): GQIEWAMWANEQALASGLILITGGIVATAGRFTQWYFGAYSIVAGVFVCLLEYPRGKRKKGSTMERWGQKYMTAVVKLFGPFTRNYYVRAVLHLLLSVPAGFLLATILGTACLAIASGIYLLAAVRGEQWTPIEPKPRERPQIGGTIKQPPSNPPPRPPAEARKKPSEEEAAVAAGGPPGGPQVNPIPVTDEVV
In words: Inhibition of Nox2 enzyme: H2O2 production in PMA-stimulated Cos-phox cells (homovanillic acid assay). It counts as cell-based. The conditions noted are these: 1 μM, 5 μM, or 20 μM, FIG. 1. On the procedure:
Various test compounds were examined for activity against Nox2 enzyme by determining hydrogen peroxide (H2O2) production in phorbol 12-myristate 13-acetate (PMA)-stimulated Cos-phox cells treated with different concentrations of vehicle control or a test compound listed in Table 1.
Cos-phox cells have been described previously in Price et al., Blood, 99: 2653-61 (2002), which is incorporated herein by reference.
H2O2 release was measured using the homovanillic acid assay as described previously in Martyn et al., Cellular Signalling, 18:69-82 (2006) and Perry et al., J. Invest. Dermatol., 126:2316-22 (2006), which are incorporated herein by reference. Briefly, 1.5-1.75×10^5 cells/well of a 12-well plate were seeded with Cos-phox cells. The following day, cells were washed once with Hank's balanced salt solution, stimulated with […] phorbol 12-myristate 13-acetate (PMA), and then preincubated for 15 minutes with either vehicle control or different concentrations (i.e., 1 μM, 5 μM, or 20 μM) of test compound no. 8, 10, 15, 16, 17, or 18 in 1 ml of media. The cells were then washed once with Hank's balanced salt solution. Vehicle control or different concentrations of test compound no. […] Fluorescence was read on a BioTek Synergy HT (BioTek Instruments Inc., Winooski, Vt., CA) with an excitation of 320 nm and emission of 440 nm. […]

Series [2] concerns light-induced retinal function loss. The arrangement: species or system Balb-C mice. The conditions noted are these: mouse, in vivo. On the procedure: Balb-C mice were exposed to dim (20 lux) or bright (10,000 lux) white light for 6 hours. Mice were injected with Fulvene-5, a triphenylmethane that inhibits NADPH oxidase, dissolved in vehicle (intralipid-DMSO) or vehicle alone. Intraperitoneal injections were given daily for two weeks. Electroretinograms (ERGs) were taken 0, 7, and 14 days following light exposure. Mice were exposed to either dim light (control) or bright light of an intensity that causes retinal degeneration (Light Induced Retinal Degeneration; LIRD). This is a classic rodent model of retinal degeneration. For each lighting condition, half the animals were injected with vehicle and the other half were injected with Fulvene 5. Electroretinograms (ERGs) of the treated mice were measured at one week post-exposure. An ERG is a measure of the change in electrical potential across the eyeball in response to a flash of light, and is used as an indication of retinal function.

Regarding `CN(C)C=C1C=CC=C1` [compound 8], in series [1], the “Inhibition of Nox2 enzyme (production of H2O2 relative to untreated control)” value is “inhibited Nox2 enzyme in a dose-dependent manner”.

As for `Cc1[nH]cnc1C=C1C=CC=C1` [Test compound 10, 4-(cyclopenta-2,4-dienylidinemethyl)-5-methyl-1H-imidazole], the “Suppression of ERG b-wave amplitude” value in series [2] is recorded as “no suppression of ERG amplitude”. Besides, in series [2] (ip), the “Effect of bright light exposure on retinal function as measured by ERG” value is recorded as “precluded the damaging effects of bright light exposure on retinal function”.
